Laboratory results reported in patent US20260092085A1, “SYNTHETIC TRIPLEX PEPTIDE NUCLEIC ACID-BASED INHIBITORS FOR CANCER THERAPY” (University of Connecticut, priority 2022, published 2026).

Columns and labels:
[1] = tested on: U2932 subcutaneous tumors; test: Tumor growth in U2932 derived xenograft model; format: in vivo, NSG mice; conditions: intra-tumoral injections days 0, 7, 14
Description: Mouse tumor xenograft: Female NSG mice (NOD.Cg-Prkdcscid Il2rgtm1Wjl/SzJ, strain 005557) weighing 20-23 g were procured from Jackson laboratories. 1×10^7 U2932 cells suspended in RPMI-1640 medium were injected subcutaneously in the right and left flank of 6-week-old NSG mice. The mice developed a small bump in 2 weeks. When the tumor volume reached 100-200 mm^3, the mice were randomly assigned to the treatment group (n=6 per group).
(§1) RNA and Protein extraction from tumor samples: The mice were injected intra-tumorally with 1 mg kg-1 dose of PNA-155, γtcPNA-155, γPNA-155, Scr-γtcPNA-155 or were untreated. The injections were repeated two additional times after 1 week each. The length, breadth, and depth of the tumors were measured daily using a vernier caliper. The mice were euthanized when the tumor volumes reached 2000 mm^3. The resected tumor sections were finely minced using a sterile blade and suspended in dissociation media (4 ml) comprising of RPMI-1640, 1.2 mg/ml dispase, and 0.5 mg/ml collagenase for 90 mins at 500 rpm at 37° C. The dissociated tumors were washed with buffer saline at 2500 rpm (4 mins) at 4° C. and then suspended in 0.25% trypsin for 4 mins at room temperature. RPMI 1640 media was added to the trypsinized tumor mass, and the cells were passed through a 70 um filter. The cells were centrifuged at 2500 rpm for 4 mins at 4° C. The cell pellet was then suspended in 1×RBC lysis buffer (Sigma) and incubated on ice for 10 mins. PBS was added to the cells and the cells were passed through a 40 um filter. The cells were centrifuged at 2500 rpm for 4 mins at 4° C. The cell pellet was resuspended in 0.5% BSA in PBS. The mouse cells were removed from the tumor cells using a mouse cell depletion kit (Miltenyi Biotec) according to the manufacturer's protocol. The enriched tumor cells from each tumor sample were divided into two fractions. RNA for gene expression analysis was extracted from one tumor fraction by the same procedure as mentioned earlier. The protein for western blot analysis was extracted from the second fraction using the method described above.
For the efficacy study, each mouse received three intra-tumoral injections of either γtcPNA-155, γPNA-155 or PNA-155 on days 0, 7, 14. We noticed that the control and scrambled treated tumors reached 2000 mm^3 much faster during our study, so we could not inject a third time in these mice. […] In contrast, as stated earlier, there was no effect on the control and scrambled PNA control on the tumor volume.

miR-155 [2] = test: miR-155 gene expression in U2932 tumor samples after in vivo treatment; parameters: species or system NSG mice; conditions: U2932 xenograft, intra-tumoral
Description: FIGS. 22A-D show in vivo gene expression and protein level analysis. (22A) miR-155 gene expression levels in U2932 tumor samples after in vivo treatment with indicated PNAs. Data was normalized with average control U6 (n=4, data represented as mean±standard error mean). ***p<0.001 (22B) Gene expression level of downstream target genes of miR-155: MCL1 in U2932 tumor samples after treatment with total 3 mg kg-1 dose of Scr-γtcPNA-155, PNA-155, γPNA-155 and γtcPNA-155 and normalized with average control GAPDH (n=3, data represented as mean±SEM), unpaired two-tailed t-test was performed for analysis). *p<0.05, **p<0.01 (22C) Representative western blot of Mcl-1 protein and its quantification (n=3 technical replicate) in U2932 tumor samples treated with total 3 mg kg-1 dose of Scr-γtcPNA-155, PNA-155 and γtcPNA-155. Data is represented as mean±SEM and unpaired two-tailed t-test was performed for analysis. *p<0.05. The relative protein levels were determined from the band intensity using ImageJ software and normalized relative to loading control and treatment control. (22D) Gene expression level of tumor suppressor proteins (FOXO3A, CUX1, SOCS1, CSF1R, JARID2, SHIP1, PICALM, PDCD4, BACH1, CASP3) in U2932 tumor samples after treatment with total 3 mg kg-1 dose of Scr-γtcPNA-155, PNA-155, γPNA-155 and γtcPNA-155 and normalized with average control GAPDH (n=3, data represented as mean±SEM, unpaired two-tailed t-test was performed for statistical analysis). *p<0.05, **p<0.01.
as §1, with “The mouse cells were removed from the tumor cells using a mouse cell depletion kit (Miltenyi Biotec) according to the manufacturer's protocol. The enriched tumor cells from each tumor sample were divided into two fractions. RNA for gene expression analysis was extracted from one tumor fraction by the same procedure as mentioned earlier. The protein for western blot analysis was extracted from the second fraction using the method described above.” left out

miR-155 [3] = test: miR-155 gene expression by RT-PCR in U2932 cells; format: cell-based, human; conditions: U2932, 500 nM, 48 hours, relative to scrambled control
Description: FIGS. 3A-F show cell culture-based functional assay in U2932 lymphoma cells. (3A) γtcPNA-155-TAMRA uptake in the U2932 lymphoma cell line: Representative flow cytometry traces of TAMRA fluorescence in U2932 cells after treatment with 500 nM dose of γtcPNA-155-TAMRA for 48 hours. The data was analyzed by FlowJo software. (3B) Normalized miR-155 gene expression levels in U2932 after treatment with phosphate buffer saline (PBS) as a control and with 500 nM dose of Scr-γtcPNA-155, PNA-155, γPNA-155 and γtcPNA-155 for 48 hours compared to average control U6 (n=3), data represented as mean±standard error mean (SEM), Statistical analysis was performed using Unpaired two-tailed t-test. Further, statistical analysis was performed relative to Scr-γtcPNA-155 treated cells. ***p<0.001. (3C) Gene expression level of miR-155 downstream genes, tumor suppressor proteins (FOXO3A, CUX1, SOCS1, CSF1R, JARID2, SHIP1, PICALM, PDCD4, BACH1, WEE1, TP53TG3, CASP3, PTEN) in U2932 cell line after treatment with PBS as a control and with after treatment with 500 nM of Scr-γtcPNA-155, PNA-155, γPNA-155 and γtcPNA-155 for 48 hours. Data is normalized with average GAPDH control (n=3), and represented as mean±SEM, *p<0.05. Unpaired two-tailed t-test was used for statistical analysis and analysis was performed relative to Scr-γtcPNA-155 treated cells. (3D) Gene expression level of miR-155 downstream genes MCL1 in U2932 cell line after treatment with PBS as a control and 500 nM of Scr-γtcPNA-155, PNA-155, γPNA-155 and γtcPNA-155 for 48 hours. Data is normalized with average GAPDH control (n=3), and represented as mean±SEM, *p<0.05, **p<0.01 and ***p<0.001. […] (3E) Representative western blot of Mcl-1 and its quantification (n=3 technical replicate) and (3F) Caspase-3 protein and its quantification (n=3 technical replicate) in U2932 cell line after treatment with 500 nM of Scr-γtcPNA-155, PNA-155 and γtcPNA-155 for 48 hours. […] Numbers above western blot panels represent relative quantification of the respective bands using ImageJ software and normalized relative to loading control and treatment control. […]

miR-155 downstream genes = test: Gene expression of miR-155 downstream genes by RT-PCR in U2932 cells; format: cell-based, human; conditions: U2932, 500 nM, 48 hours
Description: FIGS. 3A-F show cell culture-based functional assay in U2932 lymphoma cells. (3A) γtcPNA-155-TAMRA uptake in the U2932 lymphoma cell line: Representative flow cytometry traces of TAMRA fluorescence in U2932 cells after treatment with 500 nM dose of γtcPNA-155-TAMRA for 48 hours. The data was analyzed by FlowJo software. (3B) Normalized miR-155 gene expression levels in U2932 after treatment with phosphate buffer saline (PBS) as a control and with 500 nM dose of Scr-γtcPNA-155, PNA-155, γPNA-155 and γtcPNA-155 for 48 hours compared to average control U6 (n=3), data represented as mean±standard error mean (SEM), Statistical analysis was performed using Unpaired two-tailed t-test. Further, statistical analysis was performed relative to Scr-γtcPNA-155 treated cells. ***p<0.001. (3C) Gene expression level of miR-155 downstream genes, tumor suppressor proteins (FOXO3A, CUX1, SOCS1, CSF1R, JARID2, SHIP1, PICALM, PDCD4, BACH1, WEE1, TP53TG3, CASP3, PTEN) in U2932 cell line after treatment with PBS as a control and with after treatment with 500 nM of Scr-γtcPNA-155, PNA-155, γPNA-155 and γtcPNA-155 for 48 hours. Data is normalized with average GAPDH control (n=3), and represented as mean±SEM, *p<0.05. Unpaired two-tailed t-test was used for statistical analysis and analysis was performed relative to Scr-γtcPNA-155 treated cells. (3D) Gene expression level of miR-155 downstream genes MCL1 in U2932 cell line after treatment with PBS as a control and 500 nM of Scr-γtcPNA-155, PNA-155, γPNA-155 and γtcPNA-155 for 48 hours. Data is normalized with average GAPDH control (n=3), and represented as mean±SEM, *p<0.05, **p<0.01 and ***p<0.001. Statistical analysis was performed using Unpaired two-tailed t-test. Analysis was performed relative to Scr-γtcPNA-155 treated cells. (3E) Representative western blot of Mcl-1 and its quantification (n=3 technical replicate) and (3F) Caspase-3 protein and its quantification (n=3 technical replicate) in U2932 cell line after treatment with 500 nM of Scr-γtcPNA-155, PNA-155 and γtcPNA-155 for 48 hours. Data is represented as mean±SEM and unpaired two-tailed t-test was used for statistical analysis. *p<0.05 **p<0.01. Numbers above western blot panels represent relative quantification of the respective bands using ImageJ software and normalized relative to loading control and treatment control.
Gene expression by RT-PCR: 400,000 U2932 cells were seeded in a 12 well plate. The cells were treated with 500 nM PNA-155, gamma tcPNA-155, gamma PNA-155, Scr gamma tcPNA-155 or were PBS treated (control) for 48 hrs in an incubator (37° C. and 5% CO2). The cells were centrifuged at 2000 rpm for 4 mins at 4° C. The total RNA from the cell pellet was extracted using RNeasy® mini kit (Qiagen). The cDNA was prepared in thermal cycler (Bio-rad) using reverse transcriptase, RNase inhibitor, dNTPs, nuclease-free water and RT primers specific for miR-155 and U6. Random primers were used for the preparation of cDNA for downstream targets. The cDNA was amplified using miR-155 assay, U6 assay, or specific downstream target assays in CFX Connect™ Real-time PCR detection system (Bio-rad). The samples were subjected to polymerase activation (95° C. for 10 mins), followed by 40 cycles of denaturation (95° C. for 15 sec) and annealing (60° C. for 1 min). The 2^−ΔΔCT method was used to calculate the fold change in target genes.

U2932 lymphoma cell line = conditions: U2932, 10 uM; cited from earlier work

Row | Substance | tumor growth / tumor volume [1] | decrease in miR-155 gene expression in tumors (miR-155 [2]) | miR-155 inhibition (miR-155 [3]) | de-repression of miR-155 target tumor suppressor genes (miR-155 downstream genes) | reduction in MCL1 gene expression levels (miR-155 downstream genes) | increase in apoptosis compared to control (U2932 lymphoma cell line)
1 | γPNA-155: single-stranded full-length serine gamma PNA binding miR-155 by Watson-Crick pairing, SEQ ID NO: 1 (ACCCCTATCACGATTAGCATTAA; all peptide nucleic acid (PNA); serine gamma-PNA, two arginine residues (X1 RR) at each terminus, further chemistry not fully specified) | reduced the tumor growth | 80% | ~83% | significant de-repression | 19% | 
2 | cobomarsen |  |  |  |  |  | 4 fold
